Results published in article PMC5908784, “Extracellular loops 2 and 3 of the calcitonin receptor selectively modify agonist binding and efficacy” (Biochemical Pharmacology, 2018).
Residue numbers refer to the chain shown, from its start. Like-named read-outs stand apart in the source and are kept apart here. Where a SMILES comes first, the peptide text is derived from it. Bridges are numbered along the chain shown (N, C = ends).

How the values were obtained:
Assay in all cases: IP1 accumulation
Type in all cases: cell-based
hCTR I279A = biological target: T1, hCTR I279A (Homo sapiens, UniProt P30988, I279A); settings: mean ± S.E.M.; for Emax: IP1 maximal response, SEM
T1 construct: expressed in transfected cells
T1 sequence (P30988 25-474 I279A): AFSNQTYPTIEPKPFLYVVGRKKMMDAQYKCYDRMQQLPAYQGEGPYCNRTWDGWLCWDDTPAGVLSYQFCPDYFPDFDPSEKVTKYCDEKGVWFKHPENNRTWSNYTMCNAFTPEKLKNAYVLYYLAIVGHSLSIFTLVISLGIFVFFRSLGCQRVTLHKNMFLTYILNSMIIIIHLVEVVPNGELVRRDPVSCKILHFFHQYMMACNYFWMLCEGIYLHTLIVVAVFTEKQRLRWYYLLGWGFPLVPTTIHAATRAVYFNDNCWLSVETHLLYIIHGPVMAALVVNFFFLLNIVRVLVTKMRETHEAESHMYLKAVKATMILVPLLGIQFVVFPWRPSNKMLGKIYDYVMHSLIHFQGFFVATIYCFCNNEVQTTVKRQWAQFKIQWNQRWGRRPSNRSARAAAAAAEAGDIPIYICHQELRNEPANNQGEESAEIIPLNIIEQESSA
Experimental: (§1) Cells (2.5 × 10^4 cells/well) were plated into 96 well trays and cultured overnight. Cells were stimulated with increasing concentration of ligands for 60 min in the presence of LiCl. Samples were lysed and endogenous IP1 was measured using an IP-One HTRF® assay kit (CisBio) as specified by the manufacturer. Data were normalized to the maximal response elicited by 100 μM of ATP.
(§2) Data were corrected for radioligand occupancy using the Cheng-Prusoff equation in Prism; as such data are reported as pKi. Emax and EC50 were estimated from concentration-response curves using with a 3-parameter logistic equation in Prism (v7). These values are a composite of functional affinity, efficacy and stimulus response coupling. […] Significance was accepted at P < 0.05.

hCTR L298A = biological target: T2, hCTR L298A (Homo sapiens, UniProt P30988, L298A); settings: for Emax: read-out: Emax (% WT), SEM
T2 construct: c-Myc (N); expressed in transfected cells
T2 sequence (P30988 25-474 L298A): T1 sequence (P30988 25-474 I279A) with A255I, L274A
Experimental: as §1, §2

hCTR M367A = biological target: T3, hCTR M367A (Homo sapiens, UniProt P30988, M367A); settings: mean ± S.E.M.; for Emax: IP1 maximal response, SEM
T3 construct: c-Myc (N); expressed in transfected cells
T3 sequence (P30988 25-474 M367A): T1 sequence (P30988 25-474 I279A) with A255I, M343A
Experimental: as §1, §2

hCTR T280A = biological target: T4, hCTR T280A (Homo sapiens, UniProt P30988, T280A); settings: mean ± S.E.M.; for Emax: IP1 maximal response, SEM
T4 construct: expressed in transfected cells
T4 sequence (P30988 25-474 T280A): T1 sequence (P30988 25-474 I279A) with A255I, T256A
Experimental: as §1, §2

hCTR Y372A = biological target: T5, hCTR Y372A (Homo sapiens, UniProt P30988, Y372A); settings: mean ± S.E.M.; for Emax: IP1 maximal response, SEM
T5 construct: c-Myc (N); expressed in transfected cells
T5 sequence (P30988 25-474 Y372A): T1 sequence (P30988 25-474 I279A) with A255I, Y348A
Experimental: as §1, §2

[1] = IP1, CV1-FlpIn cells, 60 min, LiCl

Compound | Emax (hCTR I279A) | Emax (hCTR L298A) | Emax (hCTR M367A) | Emax (hCTR T280A) | Emax (hCTR Y372A) | EC50 (hCTR I279A; [1]) | EC50 (hCTR L298A; L298A, IP1, CV1-FlpIn cells, 60 min, LiCl, mean ± S.E.M.) | Emax (hCTR L298A; L298A, IP1 maximal response, mean ± S.E.M.) | EC50 (hCTR M367A; [1]) | EC50 (hCTR T280A; [1]) | EC50 (hCTR Y372A; [1])
CC[C@H](C)[C@H](NC(=O)[C@H](C)NC(=O)[C@@H](NC(=O)[C@H](CCC(N)=O)NC(=O)[C@@H]1CCCN1C(=O)[C@H](Cc1ccccc1)NC(=O)[C@@H](NC(=O)[C@H](Cc1c[nH]cn1)NC(=O)[C@H](Cc1ccccc1)NC(=O)[C@H](CCCCN)NC(=O)[C@H](CC(N)=O)NC(=O)[C@H](Cc1ccccc1)NC(=O)[C@H](CC(=O)O)NC(=O)[C@H](CCC(N)=O)NC(=O)[C@@H](NC(=O)[C@H](Cc1ccc(O)cc1)NC(=O)[C@@H](NC(=O)CNC(=O)[C@H](CC(C)C)NC(=O)[C@H](CCSC)NC(=O)[C@@H]1CSSC[C@H](N)C(=O)NCC(=O)N[C@@H](CC(N)=O)C(=O)N[C@@H](CC(C)C)C(=O)N[C@@H](CO)C(=O)N[C@@H]([C@@H](C)O)C(=O)N1)[C@@H](C)O)[C@@H](C)O)[C@@H](C)O)[C@@H](C)O)C(=O)NCC(=O)N[C@H](C(=O)NCC(=O)N[C@@H](C)C(=O)N1CCC[C@H]1C(N)=O)C(C)C [hCT] | 79 ± 7% | 58 ± 6% | 149 ± 8% | 79 ± 6% | 68 ± 9% |  |  |  |  |  | 
CSCC[C@H](NC(=O)CNC(=O)[C@H](CO)NC(=O)[C@H](Cc1ccccc1)NC(=O)[C@H](CCCNC(=N)N)NC(=O)[C@H](Cc1c[nH]cn1)NC(=O)[C@H](Cc1ccccc1)NC(=O)[C@H](CC(N)=O)NC(=O)[C@H](CC(N)=O)NC(=O)[C@H](CC(C)C)NC(=O)[C@H](CC(N)=O)NC(=O)[C@H](CCCNC(=N)N)NC(=O)[C@H](Cc1c[nH]c2ccccc12)NC(=O)[C@H](Cc1ccc(O)cc1)NC(=O)[C@H](C)NC(=O)[C@H](CO)NC(=O)[C@H](CC(C)C)NC(=O)[C@@H](NC(=O)[C@@H]1CSSC[C@H](N)C(=O)N[C@@H](CO)C(=O)N[C@@H](CC(N)=O)C(=O)N[C@@H](CC(C)C)C(=O)N[C@@H](CO)C(=O)N[C@@H]([C@@H](C)O)C(=O)N1)C(C)C)C(=O)NCC(=O)N[C@@H](Cc1ccccc1)C(=O)NCC(=O)N1CCC[C@H]1C(=O)N[C@@H](CCC(=O)O)C(=O)N[C@H](C(=O)N1CCC[C@H]1C(N)=O)[C@@H](C)O [pCT] (H-CSNLSTCVLSAYWRNLNNFHRFSGMGFGPETP-NH2; disulfide 1-7) | 116 ± 10% |  | 101 ± 8% | 100 ± 6% | 44 ± 5% | 6.61 nM | 4.07 nM | 91 ± 10% | 5.13 nM | 2.45 nM | 2.88 nM
CC(C)C[C@H](NC(=O)[C@H](CCCCN)NC(=O)CNC(=O)[C@H](CC(C)C)NC(=O)[C@@H](NC(=O)[C@@H]1CSSC[C@H](N)C(=O)N[C@@H](CO)C(=O)N[C@@H](CC(N)=O)C(=O)N[C@@H](CC(C)C)C(=O)N[C@@H](CO)C(=O)N[C@@H]([C@@H](C)O)C(=O)N1)C(C)C)C(=O)N[C@@H](CO)C(=O)N[C@@H](CCC(N)=O)C(=O)N[C@@H](CCC(=O)O)C(=O)N[C@@H](CC(C)C)C(=O)N[C@@H](Cc1c[nH]cn1)C(=O)N[C@@H](CCCCN)C(=O)N[C@@H](CC(C)C)C(=O)N[C@@H](CCC(N)=O)C(=O)N[C@H](C(=O)N[C@@H](Cc1ccc(O)cc1)C(=O)N1CCC[C@H]1C(=O)N[C@@H](CCCNC(=N)N)C(=O)N[C@H](C(=O)N[C@@H](CC(N)=O)C(=O)N[C@H](C(=O)NCC(=O)N[C@@H](CO)C(=O)NCC(=O)N[C@H](C(=O)N1CCC[C@H]1C(N)=O)[C@@H](C)O)[C@@H](C)O)[C@@H](C)O)[C@@H](C)O [sCT] | 97 ± 7% | 66 ± 5% | 123 ± 6% | 119 ± 5% | 46 ± 4% |  |  |  |  |  | 
